What is called viability is the share of living cells, or the viability signal relative to a control.

Here are results for seven molecules from publication PMC3352337, “Synergistic Antimycobacterial Actions of Knowltonia vesicatoria (L.f) Sims” (Evidence-based Complementary and Alternative Medicine : eCAM, 2012).

Converted amounts (≈) assume the structure as drawn. Where two headings read alike, the source gives them in different places. Marks after values point to notes of the source that are not given here. *1 amine or outer side, *2 acyl side, *3 side chain or, on linkers, in order; H or OH if unused. Where a SMILES comes first, the peptide text is derived from it. Bridges are numbered along the chain shown (N, C = ends). Roman numbers before positions name the chains, in order. [ ]: non-standard residue; d: D form. Actinocin(9to1) = Cc1c2oc3c(C)ccc(C(=O)[*:1])c3nc-2c(C(=O)[*:2])c(N)c1=O; NMeV = CN[C@H](C(=O)O)C(C)C; Sar = CNCC(=O)O

In one data set the test system is U937 cells. Description: XTT cytotoxicity assay on PMA-differentiated U937 cells. Particulars: for IC50: Homo sapiens, U-937, 72 h. A general note: Tetrazolium assays rely on reduction of a dye to a coloured formazan, in cell work by metabolically active cells.
The subject of data set [1] is Mycobacterium smegmatis (MC^2 155). As to the kind of experiment: Microdilution (microplate INT) susceptibility assay on M. smegmatis. Particulars: Mycolicibacterium smegmatis. Type of data set: cell-based. The procedure:
Cryopreserved or freshly scraped colonies were suspended in fresh Middlebrook 7H9 broth (Sigma-Aldrich Chemical Co., South Africa) and incubated for 24 h at 37°C. The overnight liquid culture was then transferred to a sterile test tube containing 20–25 glass beads (with a 2.00 mm diameter) and homogenised by using a vortex mixer (Heidolph, Germany) for 5–10 min. The broth culture was then left still for 5–10 min to let larger clumps of mycobacteria settle. The supernatant was carefully decanted to a sterile flask and adjusted with Middlebrook 7H9 broth base to an optical density of 0.2 (log phase) at 550 nm (Beckman DU-720 UV spectrophotometer), yielding 1.26 × 10^8 colony-forming units per millilitre (CFU/mL). The microdilution test was performed in 96-well microtiter plates as described earlier.
The plant extract and fractions were dissolved in 10% dimethyl sulfoxide (DMSO) to obtain a stock concentration of 10 mg/mL. Ciprofloxacin (Sigma-Aldrich Chemical Co., South Africa) at final concentrations ranging from 2.00 × 10^−3 to 7.80 × 10^−5 mg/mL served as the positive drug control. Serial twofold dilutions of each test sample were made with Middlebrook 7H9 broth base (Sigma-Aldrich Chemical Co., South Africa) to yield volumes of […] with final concentrations ranging from 2.50 to 0.08 mg/mL. […]
(In general: In broth dilution the organism is exposed to a series of concentrations in liquid medium.)

Data set [2] has as its system M. tuberculosis H37Rv (ATCC 27294). Description: microbe, parasite or virus in culture. Type of data set: cell-based, Mycobacterium tuberculosis. Particulars: for ΔGI4-3 ± SD: BACTEC growth index change, V2 10^-2 inoculum control 22.0 ± 2.94; for MIC: Mycobacterium tuberculosis, read-out: MIC (minimum inhibitory concentration).
The subject of data set [3] is M. tuberculosis. As to the kind of experiment: Microplate assay MIC against M. tuberculosis (compound 2). Type of data set: cell-based, Mycobacterium tuberculosis. Particulars: BACTEC MIC not determined.
The nature of data set [4]: XTT cytotoxicity assay on PMA-differentiated U937 cells. The conditions noted are these: human, PMA-differentiated U937 cells (macrophage-like), pH 7.2.
The subject of data set [5] is M. tuberculosis. Particulars: cited from earlier work.
[6] abbreviates: read-out: IC50 (fifty percent inhibitory concentration).

`Cc1c2oc3c(C)ccc(C(=O)N[C@@H]4C(=O)N[C@H](C(C)C)C(=O)N5CCC[C@H]5C(=O)N(C)CC(=O)N(C)[C@@H](C(C)C)C(=O)O[C@@H]4C)c3nc-2c(C(=O)N[C@@H]2C(=O)N[C@H](C(C)C)C(=O)N3CCC[C@H]3C(=O)N(C)CC(=O)N(C)[C@@H](C(C)C)C(=O)O[C@@H]2C)c(N)c1=O` [Actinomycin D] (I: T[dV]P[Sar][NMeV] / II: T[dV]P[Sar][NMeV]; ester I:1-I:C, II:1-II:C; linker I:N-II:N via Actinocin(9to1)): in the data set with U937 cells (read-out: IC50 (fifty percent inhibitory concentration), U937 macrophages, 72 h, XTT), the IC50 amounted to 0.0038 µg/mL (≈ 0.00303 µM). For the same molecule, in the data set with U937 cells (U937 macrophages, 72 h, XTT), the “IC50 (fifty percent inhibitory concentration)” value is reported as 3.820 ± 0.258 ×10^−3 μg/mL.
`O=C(O)c1cn(C2CC2)c2cc(N3CCNCC3)c(F)cc2c1=O` [Ciprofloxacin]: in data set [1] (MC^2155, 24 h, INT microplate, read-out: MIC (minimum inhibitory concentration)), the MIC was 1.25 µg/mL (≈ 3.77 µM). Further, in data set [1] (MC^2155, 48 h subculture, INT, read-out: MBC (minimum bactericidal concentration)), the MBC turned out to be 1.25 µg/mL (≈ 3.77 µM).
`CCC(=CC[C@@H](C)[C@H]1CC[C@H]2[C@@H]3CC=C4CC(O)CC[C@]4(C)[C@H]3CC[C@]12C)C(C)C` (some centres unmarked) [Compound (1), Stigmasta-5,23-dien-3-ol]: the IC50 in the data set on U937 cells (setting [6]) came to 16.41 ± 0.135 µg/mL (≈ 39.8 µM). Also, the “ΔGI4-3 ± SD” value in data set [2] was −9.00 ± 1.41. Moreover, the MIC in data set [2] (BACTEC radiometric) is 50 µg/mL (≈ 121 µM).
Consider `O=C1C=CC(CO)O1` (centres unmarked) [Compound (2), 5-(hydroxymethyl)furan-2(5H)-one], for which, in the data set with U937 cells (setting [6]), the IC50 came out at 44.7 ± 0.5 µg/mL (≈ 392 µM). Also, in the data set on M. tuberculosis [3], the “MIC determined via microplate assay” value is recorded as 100.0^k μg/mL. Also, the MIC with M. tuberculosis [3] (Mycobacterium tuberculosis, read-out: MIC determined via microplate assay) is 200 µg/mL (≈ 1750 µM).
Regarding `NNC(=O)c1ccncc1` [INH, isoniazid], the IC50 in the data set with U937 cells (setting [6]) is over 200 µg/mL. The viability at 72 h, 200 μg/mL in data set [4] was determined as 80%. In addition, the “ΔGI4-3 ± SD” value in data set [2] is recorded as −2.50 ± 2.12. Besides, in data set [2] (BACTEC radiometric), the “MIC (minimum inhibitory concentration)” value is 0.20 µg/mL (≈ 1.46 µM) and the MIC came out at 0.2 µg/mL (≈ 1.46 µM).
As to `C=CC(O)(CC[C@@H](C)[C@H]1CC[C@H]2[C@@H]3CC=C4C[C@@H](O)CC[C@]4(C)[C@H]3CC[C@]12C)C(C)C` (some centres unmarked) [saringosterol], the MIC in the data set with M. tuberculosis [5] (M. tb ref 34) was 0.250 µg/mL (≈ 0.583 µM).
For `CC[C@H](/C=C/[C@@H](C)[C@H]1CC[C@H]2[C@@H]3CC=C4C[C@@H](O)CC[C@]4(C)[C@H]3CC[C@]12C)C(C)C` [stigmasterol], in the data set with M. tuberculosis [5] (phytosterols from Morinda citrifolia against M. tb ref 33 (Saludes et al.)), the MIC is 32.00 µg/mL (≈ 77.5 µM).
